According to patent US8993527B2, “Methods, compositions, and formulations for preventing or reducing adverse effects in a patient” (Pericor Therapeutics, Inc., priority 2005, dated 2015):
Where a name gives a salt, the structure may show the parent alone. Each block holds one molecule with its values, some of them ahead of it.

Legend:
[1] = molecular target: T1, calf intestinal musosa adenosine deaminase (Bos taurus, UniProt P56658); assay: Adenosine deaminase activity; format: biochemical; settings: 80 μM adenosine, 10 minutes at 37° C.
T1 construct: 0.002 units of calf intestinal musosa adenosine deaminase; from tissue; host or cells: calf intestinal mucosa
Description: Different concentrations of the test compounds were incubated in the assay mixture for 10 minutes at 37° C. The reaction was monitored continuously for oxidation of NADH from the change in absorbance at 340 nm.

[2] = tested on: AMP deaminase; assay: Inhibition of AMP deaminase (14C-AMP to 14C-IMP); format: biochemical, human; settings: 200 μM of each ribotide
Description: The phosphorylated forms are referred to as AICA ribotide and ribavirin monophosphate, respectively. Using 200 μM of each ribotide, AMP deaminase was inhibited 38% and 54%, respectively.

[3] = tested on: granulocytes and endothelial cells; assay: Granulocyte/endothelial cell interaction, intravital microscopy of mesentery microvessels; format: in vivo, rat; settings: superfusion with 20 μM, approximately 2 μM in the vessel
Description: The parameter measured was the fracture stress between the two cell types.
These studies were performed by intravital microscopy filming of granulocytes in rat mesentary microvessels. The rolling velocity of granulocytes compared to the streaming velocity of red cells was calculated before and after the administration of adenosine.

[4] = tested on: brain ischemia; assay: Gerbil stroke model: hippocampal pyramidal cell survival; format: in vivo; settings: pretreatment with 500 mg/kg (FIG. 21)
Description: Ischemia was then induced by bilateral occlusion of both common carotid arteries for 5 minutes. Seven days following the ischemic insult, brains were removed and processed for histology.

[5] = molecular target: T2, NBTI-specific adenosine transport site (UniProt O54698); assay: [3H]-NBTI binding assay; settings: read-out: ED50 (50% displacement of bound [3H]-NBTI); 0.5 mg neuronal membrane protein, 0.5 nM [3H]-NBTI, 30 minutes
T2 sequence (O54698 1-457): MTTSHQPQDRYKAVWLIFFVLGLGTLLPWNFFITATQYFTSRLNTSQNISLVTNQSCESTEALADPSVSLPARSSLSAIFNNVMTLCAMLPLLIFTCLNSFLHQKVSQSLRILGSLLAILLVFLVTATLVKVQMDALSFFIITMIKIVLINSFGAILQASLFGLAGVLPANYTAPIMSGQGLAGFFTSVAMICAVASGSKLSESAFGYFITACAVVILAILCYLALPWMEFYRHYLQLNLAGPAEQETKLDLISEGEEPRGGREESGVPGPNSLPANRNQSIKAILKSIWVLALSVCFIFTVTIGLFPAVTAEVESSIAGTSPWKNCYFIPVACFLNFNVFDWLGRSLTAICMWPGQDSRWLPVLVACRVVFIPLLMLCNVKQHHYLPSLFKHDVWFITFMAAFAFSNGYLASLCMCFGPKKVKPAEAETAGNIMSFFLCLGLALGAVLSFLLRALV
Description: Increasing concentrations of the test compounds were incubated for 30 minutes with 0.5 mg neuronal membrane protein together with 0.5 nM [^3 H]-NBTI in a Tris buffer (pH 7.4) at room temperature. The assays were quenched and membranes collected by rapid filtration. Filters were then solubilized and radioactivity determined by scintillation counting.

[6] = tested on: longitudinal muscle from the guinea pig ileum; assay: Inhibition of stimulated contraction in isolated ileum; settings: electrically stimulated guinea pig ileum muscle
From the text: These are detailed in Table II.

[7] = tested on: ischemic rat hearts; assay: Rat heart ischemia model: tissue adenosine levels; format: in vivo
Description: Male rats were injected intraperitonealy with either the AICA riboside analog, AICA riboside or saline, as a control. After 60 minutes, the hearts were excised and incubated at 37° C. for a further 60 minutes. Tissue extracts were prepared and analyzed for adenosine by high performance liquid chromatography (HPLC).

[8] = Oral bioavailability and half-life in fasted adult beagles; format: in vivo, dog; settings: beagle, dog, in vivo
Description: Heparinized blood and urine were collected at selected intervals over 24 hours. Each sample was chilled, centrifuged at 4° C. and frozen prior to HPLC analysis.

[9] = tested on: demand-induced ischemia; assay: Canine model of stable angina (repeated pacing with LAD stenosis); format: in vivo, dog
Description: Anesthetized male dogs were instrumented to measure regional myocardial wall thickening during right atrial pacing in the presence of a stenosis of the left anterior descending artery (Young & Mullane Am. J. Physiol. in press (1991)). In Table XIA, the effects on wall thickening and arterial pressure of six repeated episodes of pacing in animals treated with a continuous IV infusion of 50 μg/kg/min of the test compound administered post-pace #1 are compared with saline-treated control animals.

[10] = tested on: coronary endothelial cells; assay: Inhibition of adenosine utilization in cell culture; format: cell-based; settings: Endothelial cell, 1 μM [3H] adenosine, 15 minutes
Description: In this assay, endothelial cells were incubated with 5 μM or 50 μM of the test compound together with 1 μM [^3H] adenosine for 15 minutes. Inhibition of adenosine utilization was determined by measuring the concentration of extracellular adenosine by scintillation counting following separation by thin layer chromatography (TLC).

[11] = tested on: platelet aggregation in human whole blood; assay: Inhibition of platelet aggregation in human whole blood; format: cell-based; settings: Homo sapiens, Platelet, 10 min, 10 minutes at 37° C., 10 µM adenosine added, ADP (6-25 μM)
Description: Whole blood was drawn from healthy donors and collected in 0.1 vol. of sodium citrate to prevent coagulation. Platelet aggregation was measured by the impedance technique using a Whole Blood Aggregometer. The test compounds were incubated in whole blood for 10 minutes at 37° C. and 10 µM adenosine was added 5 minutes before eliciting aggregation. Aggregation was induced by addition of ADP (6-25 μM) at the minimum concentration inducing full aggregation in untreated controls.

[12] = tested on: Mouse bone marrow-derived mast cells; assay: Ribavirin: mast cell β-hexosaminidase release

T1 sequence (P56658 whole entry): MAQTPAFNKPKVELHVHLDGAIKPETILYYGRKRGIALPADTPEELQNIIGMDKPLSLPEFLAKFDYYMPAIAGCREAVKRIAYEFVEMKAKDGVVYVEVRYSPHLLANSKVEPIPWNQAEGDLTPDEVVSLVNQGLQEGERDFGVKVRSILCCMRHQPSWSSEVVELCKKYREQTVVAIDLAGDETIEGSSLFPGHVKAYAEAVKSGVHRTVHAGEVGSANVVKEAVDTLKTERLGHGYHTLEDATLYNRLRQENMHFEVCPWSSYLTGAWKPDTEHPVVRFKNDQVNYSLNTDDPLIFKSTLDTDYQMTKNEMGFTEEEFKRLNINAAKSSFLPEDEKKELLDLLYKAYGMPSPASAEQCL

Compound: NC(=O)c1ncn([C@@H]2O[C@H](COP(=O)(O)O)[C@@H](O)[C@H]2O)c1N [AICA ribotide]
AMP deaminase inhibited [2]: 38%

Compound: Nc1ncnc2c1ncn2[C@@H]1O[C@H](CO)[C@@H](O)[C@H]1O [Adenosine, 9-β-D-ribofuranosyladenine]
rolling velocity of granulocytes in microvessels [3]: twofold increase

Compound: Nc1c(C(=O)NC2CCCC2)ncn1C1OC(CO)C(O)C1O [Compound No. 10 (1-186), 5-Amino-1-beta-D-ribofuranosylimidazole-4-N-(cyclopentyl)carboxamide]
effect in a gerbil model of brain ischemia [4]: demonstrated protective effects | melting point: 158 to 160 °C | EC50 [5]: 350 µM

Compound: NC(=O)c1ncn([C@@H]2O[C@H](CO)[C@@H](O)[C@H]2O)n1 [ribavirin, 1-β-D-ribofuranosyl-1H-1,2,4-triazole-3-carboxamide]
mediator release ([12]; 1 μM for six days): inhibits mediator release significantly | β-hexosaminidase release ([12]; 10 μM added at the time of mast cell stimulation): does not affect | β-hexosaminidase release ([12]; three to seven days in 10 μM, washed, A23187 challenge): marked attenuation

The next lines start with results.

IC50 [1]: 175 µM
Compound: CCCCO[C@@H]1[C@H](O)[C@@H](CO)O[C@H]1n1cnc(C(N)=O)c1N [32 (1-262), 5-amino-1-(2-O-n-butyl-β-D-ribofuranosyl)imidazole-4-carboxamide]

IC50 [6]: 200 µM
Compound: Nc1c(C(=O)NCc2ccccc2)ncn1[C@@H]1O[C@H](CO)[C@@H](O)[C@H]1O [Compound No. 11 (1-226), 5-Amino-1-beta-D-ribofuranosylimidazole-4-N-(benzyl)carboxamide]
effect in a gerbil model of brain ischemia [4]: demonstrated protective effects | Tissue Adenosine Levels (% Increase vs. Saline) ([7]; Expt 1): 53% | Tissue Adenosine Levels (% Increase vs. Saline) ([7]; Expt 2): 45%

IC50 ([6]; Cavia porcellus): 70 µM | half-life [8]: 5.61 h | bioavailability ([8]; po, 10 mg/kg IV bolus and 20 mg/kg via stomach tube, read-out: Absolute Oral Bioavailability %): 32 ± 11% | Mean Arterial Pressure ([9]; Baseline): 86 ± 5 mm Hg | Mean Arterial Pressure, Change from Baseline ([9]; Post Pace Rest Period 1): −1 ± 3 mm Hg | Mean Arterial Pressure, Change from Baseline ([9]; Post Pace Rest Period 2): −2 ± 3 mm Hg | Mean Arterial Pressure, Change from Baseline ([9]; Post Pace Rest Period 3): −8 ± 3 mm Hg | Mean Arterial Pressure, Change from Baseline ([9]; Post Pace Rest Period 4): −7 ± 3 mm Hg | Mean Arterial Pressure, Change from Baseline ([9]; Post Pace Rest Period 5): −8 ± 3 mm Hg | Mean Arterial Pressure, Change from Baseline ([9]; Post Pace Rest Period 6): −7 ± 3 mm Hg | IC50 [11]: 150 µM | EC50 [5]: ~100 µM
Compound: NC[C@H]1O[C@@H](n2cnc(C(=O)NCc3ccc(Cl)cc3)c2N)[C@H](O)[C@@H]1O [Compound No. 53 (1-468), 5-Amino-1-(5-amino-5-deoxy-β-D-ribofuranosyl)imidazole-4-N-[(4-chlorophenyl)methyl]carboxamide Hydrochloride]
Heart Rate ([9]; Baseline): 143 ± 6 beats/min | % of NON-ISCHEMIC WALL THICKENING ([9]; Pace # 1 (before infusion), 50 μg/kg/min IV post-pace #1): 49.5 ± 6.5% | % of NON-ISCHEMIC WALL THICKENING ([9]; Pace # 2): 46.7 ± 7.0% | % of NON-ISCHEMIC WALL THICKENING ([9]; Pace # 3): 54.2 ± 9.4 % | % of NON-ISCHEMIC WALL THICKENING ([9]; Pace # 4): 48.1 ± 7.6 % | % of NON-ISCHEMIC WALL THICKENING ([9]; Pace # 5): 47.5 ± 8.2 % | % of NON-ISCHEMIC WALL THICKENING ([9]; Pace # 6): 42.1 ± 7.0 % | Heart Rate, Change from Baseline ([9]; Post Pace Rest Period 1): 1 ± 2 beats/min | Heart Rate, Change from Baseline ([9]; Post Pace Rest Period 2): −2 ± 4 beats/min | Heart Rate, Change from Baseline ([9]; Post Pace Rest Period 3): −1 ± 3 beats/min | Heart Rate, Change from Baseline ([9]; Post Pace Rest Period 4): 2 ± 4 beats/min | Heart Rate, Change from Baseline ([9]; Post Pace Rest Period 5): 1 ± 4 beats/min | Heart Rate, Change from Baseline ([9]; Post Pace Rest Period 6): 2 ± 4 beats/min | inhibition at 5 µM ([10]; 5 μM): 34 ± 4% | inhibition at 50 µM ([10]; 50 μM): 58 ± 2%

AMP deaminase inhibited [2]: 54%
Compound: NC(=O)c1ncn([C@@H]2O[C@H](COP(=O)(O)O)[C@@H](O)[C@H]2O)n1 [ribavirin monophosphate]
